In patent US8889878B2, “Haloalky-substituted amides as insecticides and acaricides” (Bayer CropScience AG, priority 2009, dated 2014):
Blank lines part the entries; values can stand above or below the compound they belong to.

What was measured:
[1] = logP by HPLC on reverse-phase column (EEC Directive 79/831 Annex V.A8); assay type: physicochemical; conditions: for chromatographic logP: reverse-phase C18 HPLC column, pH 2.7, HPLC
Procedure: The logP values reported in the above Tables and Preparation Examples were determined according to EEC Directive 79/831 Annex V.A8 by HPLC (High Performance Liquid Chromatography) on a reverse-phase column (C18). Temperature 43° C.

[2] = system: mustard beetle (Phaedon cochleariae); experiment: Phaedon test (PHAECO spray treatment), Example 16; assay type: in vivo; conditions: china cabbage leaf discs sprayed, after the desired time; for efficacy in % / pest or weed control at 500 g/ha: application rate 500 g/ha
Procedure: Phaedon Test (PHAECO Spray Treatment)
(§1) • Solvent: 78.0 parts by weight of acetone • 1.5 parts by weight of dimethylformamide • Emulsifier: 0.5 part by weight of alkylaryl polyglycol ether
To prepare an appropriate active ingredient formulation, 1 part by weight of active ingredient is mixed with the stated amounts of solvent and emulsifier, and the concentrate is diluted with emulsifier-containing water to the desired concentration. […]
After the desired time, the efficacy in % is determined. 100% means that all beetle larvae were killed; 0% means that no beetle larvae were killed.

[3] = system: mustard beetle (Phaedon cochleariae); experiment: Phaedon test (PHAECO spray treatment), Example 7; assay type: in vivo; conditions: application rate 20 g/ha, china cabbage leaf discs sprayed, after 7 days
Method in brief: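 Spray formulation (acetone/DMF with alkylaryl polyglycol ether, diluted in emulsifier-containing water) applied to Chinese cabbage leaf discs, which were dried and then stocked with mustard beetle larvae. Efficacy scored at 7 days as % larvae killed (100% all, 0% none).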

[4] = system: green peach aphid (Myzus persicae); experiment: Myzus test (MYZUPE spray treatment), Example 17; assay type: in vivo; conditions: application rate 500 g/ha, china cabbage leaf discs sprayed, after 6 days
Procedure: Myzus Test (MYZUPE Spray Treatment)
• Solvent: 78 parts by weight of acetone • 1.5 parts by weight of dimethylformamide • Emulsifier: 0.5 part by weight of alkylaryl polyglycol ether
To prepare an appropriate active ingredient formulation, 1 part by weight of active ingredient is mixed with the stated amounts of solvent and emulsifier, and the concentrate is diluted with emulsifier-containing water to the desired concentration. Leaf discs from china cabbage (Brassica pekinensis) infested by all stages of the green peach aphid (Myzus persicae) are sprayed with an active ingredient formulation of the desired concentration.
After 6 days, the efficacy in % is determined. 100% means that all aphids were killed; 0% means that no aphids were killed.

[5] = system: red spider mite (Tetranychus urticae); experiment: Tetranychus test, OP-resistant (TETRUR spray treatment), Example 8; assay type: in vivo; conditions: application rate 20 g/ha, common bean leaf discs sprayed, after 6 days
Procedure: Tetranychus Test, OP-resistant (TETRUR Spray Treatment)
as §1
To prepare an active ingredient formulation, 1 part by weight of active ingredient is mixed with the stated amounts of solvent and emulsifier, and the concentrate is diluted with emulsifier-containing water to the desired concentration.
Leaf discs from the common bean (Phaseolus vulgaris) infested by all stages of the red spider mite (Tetranychus urticae) are sprayed with an active ingredient formulation of the desired concentration.
After 6 days, the efficacy in % is determined. 100% means that all spider mites were killed; 0% means that no spider mites were killed.

[6] = system: armyworm (Spodoptera frugiperda); experiment: Spodoptera frugiperda test (SPODFR spray treatment), Example 15; assay type: in vivo; conditions: application rate 500 g/ha, maize leaf discs sprayed, after 7 days
Method in brief: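 Caterpillars placed on dried, sprayed Zea mays leaf discs; formulation of acetone, dimethylformamide and emulsifier diluted with emulsifier-containing water to test concentration. Percent kill scored on day 7.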

Boophilus microplus = Boophilus microplus test (BOOPMI injection), Example 11; assay type: in vivo; conditions: application rate 20 μg/animal, injected into abdomen, after 7 days
Procedure: Boophilus microplus Test (BOOPMI Injection) • Solvent: dimethyl sulphoxide To prepare an appropriate active ingredient formulation, 10 mg of active ingredient are mixed with 0.5 ml of solvent and the concentrate is diluted with solvent to the desired concentration. The active ingredient solution is injected into the abdomen (Boophilus microplus), and the animals are transferred to dishes and stored in a climate-controlled room. The efficacy was assessed by the number of fertile eggs laid. After 7 days, the efficacy in % is determined. 100% means that none of the ticks has laid any fertile eggs.

[7] = HPLC, C18 reverse phase, 43° C., acidic range pH 2.7, calibration with alkan-2-ones
[8] = C18 reverse phase, 43° C., acidic range pH 2.7, calibration with alkan-2-ones
[9] = Phaedon cochleariae, foliar, read-out: efficacy in %

logP [1, 7]: HPLC-MS: logP = 3.90; mass
Structure (SMILES): N#Cc1ccc2[nH]c(C(=O)NC(c3cc(Cl)cc(C(F)(F)F)c3)C(F)(F)F)cc2c1 (stereo not shown) [Ic-11]
efficacy in % [2]: 83%

Structure (SMILES): O=C(/C=C/c1ccc(C(=O)NC2CCC2)c(C(F)(F)F)c1)NC(c1cccc(C(F)(F)F)c1)C(F)(F)F (stereo not shown) [Ia-61]
efficacy in % [3]: 100%
logP ([1]; HPLC-MS): HPLC-MS: logP = 3.58; mass
efficacy in % [4]: 80%
efficacy in % [5]: 100%

logP [1, 7]: HPLC-MS: logP = 2.83; mass (m/z):
Structure (SMILES): O=C(/C=C/c1ccc(C(=O)NC2CC2)c(C(F)(F)F)c1)NC(c1cncc(C(F)(F)F)c1)C(F)(F)F (stereo not shown) [Ib-3]
efficacy in % [2]: 83%

Structure (SMILES): O=C(/C=C/c1ccc(C(=O)NC2COC2)c(C(F)(F)F)c1)NC(c1cccc(C(F)(F)F)c1)C(F)(F)F (stereo not shown) [Ia-59]
efficacy in % [3]: 100%
logP ([1]; HPLC-MS): HPLC MS: logP = 2.89; mass
efficacy in % [6]: 83%
efficacy in % [4]: 100%
efficacy in % [5]: 100%

Structure (SMILES): O=C(/C=C/c1ccc(NC(=O)C2CC2)cc1)NC(c1cc(Cl)cc(Cl)c1)C(F)(F)F (stereo not shown) [Ia-1]
logP ([1]; HPLC-MS): HPLC-MS: logP = 3.77; mass
efficacy in % [2]: 83%

Structure (SMILES): O=C(NC(c1cccc(C(F)(F)F)c1)C(F)(F)F)c1cc2cc(Cl)c(C(=O)NC3CC3)cc2[nH]1 (stereo not shown) [Ic-18]
efficacy in % [3]: 100%
logP [1, 7]: HPLC-MS: logP = 2.98; mass
efficacy in % (fertile eggs laid) (Boophilus microplus): 100%
efficacy in % [5]: 80%

chromatographic logP [1, 8]: 3.04
Structure (SMILES): CC(F)(F)C(NC(=O)/C=C/c1ccc(C(=O)NC2CC2)c(Cl)c1)c1cccc(C(F)(F)F)c1 (stereo not shown) [Id-1, 2-Chloro-N-cyclopropyl-4-[(1E)-3-({2,2-difluoro-1-[3-(trifluoromethyl)phenyl]propyl}amino)-3-oxoprop-1-en-1-yl]benzamide]
pest or weed control at 500 g/ha [2, 9]: 100%

Structure (SMILES): CC(NC(=O)c1ccc(/C=C/C(=O)NC(c2cccc(C(F)(F)F)c2)C(F)(F)F)cc1C(F)(F)F)C1CC1 (stereo not shown) [Ia-56]
efficacy in % [3]: 100%
logP ([1]; HPLC-MS): HPLC-MS: logP = 3.77; mass
efficacy in % [6]: 83%
efficacy in % [5]: 100%

chromatographic logP [1, 8]: 3.25
Structure (SMILES): O=C(NC1CC1)c1ccc2cc(C(=O)NC(c3cccc(C(F)(F)F)c3)C(F)(F)F)oc2c1 (stereo not shown) [Ic-19, N^6-Cyclopropyl-N^2-{2,2,2-trifluoro-1-[3-(trifluoromethyl)phenyl]ethyl}-1-benzofuran-2,6-dicarboxamide]
pest or weed control at 500 g/ha [2, 9]: 100%

Structure (SMILES): C#CCNC(=O)c1ccc(/C=C/C(=O)NC(c2cccc(C(F)(F)F)c2)C(F)(F)F)cc1C(F)(F)F (stereo not shown) [Ia-63]
efficacy in % [3]: 100%
logP ([1]; HPLC-MS): HPLC-MS: logP = 3.36; mass
efficacy in % [4]: 90%
efficacy in % [5]: 80%

Structure (SMILES): Cc1cc(/C=C/C(=O)NC(c2cccc(C(F)(F)F)c2)C(F)(F)F)ccc1C(=O)Nc1ccc(F)cc1 (stereo not shown) [Ia-99]
efficacy in % [3]: 100%
logP ([1]; HPLC-MS): HPLC-MS: logP = 3.78 mass
efficacy in % [5]: 80%

Structure (SMILES): CCOC1(NC(=O)c2ccc(/C=C/C(=O)NC(c3cccc(C(F)(F)F)c3)C(F)(F)F)cc2Cl)CC1 (stereo not shown) [Ia-96]
efficacy in % [3]: 100%
logP ([1]; HPLC-MS): HPLC-MS: logP = 3.47 mass
efficacy in % [5]: 80%

Structure (SMILES): CN(C(=O)c1ccc(/C=C/C(=O)NC(c2cccc(C(F)(F)F)c2)C(F)(F)F)cc1Br)C1CC1 (stereo not shown) [Ia-95]
efficacy in % [3]: 100%
logP ([1]; HPLC-MS): HPLC-MS: logP = 3.58 mass
efficacy in % [5]: 80%

Structure (SMILES): COC(C)(C)NC(=O)c1ccc(/C=C/C(=O)NC(c2cccc(C(F)(F)F)c2)C(F)(F)F)cc1C(F)(F)F (stereo not shown) [Ia-55]
logP ([1]; HPLC-MS): HPLC-MS: logP = 3.37; mass
efficacy in % [6]: 83%
efficacy in % [4]: 90%
efficacy in % [5]: 100%

logP [1, 7]: HPLC-MS: logP = 4.94; mass
Structure (SMILES): O=C(NC(c1cccc(C(F)(F)F)c1)C(F)(F)F)c1cc2cc(SC(F)(F)F)ccc2o1 (stereo not shown) [Ic-2]
efficacy in % [2]: 83%

Structure (SMILES): CC(F)(F)CNC(=O)c1ccc(/C=C/C(=O)NC(c2cccc(C(F)(F)F)c2)C(F)(F)F)cc1C(F)(F)F (stereo not shown) [Ia-79]
efficacy in % [3]: 100%
logP ([1]; HPLC-MS): HPLC-MS: logP = 3.65; mass
efficacy in % [4]: 90%
efficacy in % [5]: 90%

Structure (SMILES): O=C(/C=C/c1ccc(C(=O)NCc2ccc(F)cn2)c(Br)c1)NC(c1cccc(C(F)(F)F)c1)C(F)(F)F (stereo not shown) [Ia-90]
efficacy in % [3]: 100%
logP ([1]; HPLC-MS): HPLC-MS: logP = 3.23 mass
efficacy in % [5]: 80%

Structure (SMILES): O=C(/C=C/c1ccc(C(=O)NCC2CC2)c(C(F)(F)F)c1)NC(c1cccc(C(F)(F)F)c1)C(F)(F)F (stereo not shown) [Ia-78]
efficacy in % [3]: 100%
logP ([1]; HPLC-MS): HPLC-MS: logP = 3.52; mass
efficacy in % [4]: 90%
efficacy in % [5]: 90%

Structure (SMILES): Cc1cc(/C=C/C(=O)NC(c2cccc(C(F)(F)F)c2)C(F)(F)F)ccc1C(=O)O (stereo not shown) [Ia-27]
logP ([1]; HPLC-MS): HPLC-MS: logP = 3.14; mass
efficacy in % [2]: 83%

Structure (SMILES): O=C(/C=C/c1ccc(C(=O)NC2(c3ccccn3)CC2)c(C(F)(F)F)c1)NC(c1cccc(C(F)(F)F)c1)C(F)(F)F (stereo not shown) [Ia-70]
efficacy in % [3]: 100%
logP ([1]; HPLC-MS): HPLC-MS: logP = 3.23; mass
efficacy in % [6]: 83%
efficacy in % [5]: 100%

Structure (SMILES): COC(CNC(=O)c1ccc(/C=C/C(=O)NC(c2cccc(C(F)(F)F)c2)C(F)(F)F)cc1C(F)(F)F)OC (stereo not shown) [Ia-51]
efficacy in % [3]: 100%
logP ([1]; HPLC-MS): HPLC-MS: logP = 3.18; mass
efficacy in % [5]: 90%

chromatographic logP [1, 8]: 2.8
Structure (SMILES): CC(=O)NCc1ccc2oc(C(=O)NC(c3cccc(C(F)(F)F)c3)C(F)(F)F)cc2c1 (stereo not shown) [Ic-10, 5-(Acetamidomethyl)-N-{2,2,2-trifluoro-1-[3-(trifluoromethyl)phenyl]ethyl}-1-benzofuran-2-carboxamide]
pest or weed control at 500 g/ha [2, 9]: 100%

Structure (SMILES): CC(C)NC(=O)c1ccc(/C=C/C(=O)NC(c2cccc(C(F)(F)F)c2)C(F)(F)F)cc1C(F)(F)F (stereo not shown) [Ia-62]
efficacy in % [3]: 100%
logP ([1]; HPLC-MS): HPLC-MS: logP = 3.41; mass
efficacy in % [4]: 80%
efficacy in % [5]: 100%

Structure (SMILES): CCOC1(NC(=O)c2ccc(/C=C/C(=O)NC(c3cccc(C(F)(F)F)c3)C(F)(F)F)cc2C(F)(F)F)CC1 (stereo not shown) [Ia-68]
efficacy in % [3]: 100%
logP ([1]; HPLC-MS): HPLC-MS: logP = 3.52; mass
efficacy in % [5]: 100%

Structure (SMILES): O=C(/C=C/c1ccc(C(=O)Nc2ccc(F)cc2)c(C(F)(F)F)c1)NC(c1cccc(C(F)(F)F)c1)C(F)(F)F (stereo not shown) [Ia-48]
efficacy in % [3]: 100%
logP ([1]; HPLC-MS): HPLC-MS: logP = 3.89; mass
efficacy in % [5]: 90%

Structure (SMILES): O=C(/C=C/c1ccc(C(=O)Nc2ccccn2)c(Br)c1)NC(c1cccc(C(F)(F)F)c1)C(F)(F)F (stereo not shown) [Ia-92]
efficacy in % [3]: 100%
logP ([1]; HPLC-MS): HPLC-MS: logP = 3.47 mass
efficacy in % [5]: 80%

Structure (SMILES): O=C(/C=C/c1ccc(C(=O)NCCOCC(F)(F)F)c(C(F)(F)F)c1)NC(c1cccc(C(F)(F)F)c1)C(F)(F)F (stereo not shown) [Ia-47]
efficacy in % [3]: 100%
logP ([1]; HPLC-MS): HPLC-MS: logP = 3.58; mass
efficacy in % [6]: 83%
efficacy in % [5]: 90%

Structure (SMILES): O=C(/C=C/c1ccc(C(=O)NC2CCOCC2)c(C(F)(F)F)c1)NC(c1cccc(C(F)(F)F)c1)C(F)(F)F (stereo not shown) [Ia-69]
efficacy in % [3]: 100%
logP ([1]; HPLC-MS): HPLC-MS: logP = 3.12; mass
efficacy in % [4]: 90%
efficacy in % [5]: 100%

chromatographic logP [1, 8]: 2.93
Structure (SMILES): O=C(/C=C/c1ccc(C(=O)NC2CS(=O)(=O)C2)c(Cl)c1)NC(c1cccc(C(F)(F)F)c1)C(F)(F)F (stereo not shown) [Ia-166, 2-Chloro-N-(1,1-dioxidothietan-3-yl)-4-[(1E)-3-oxo-3-({2,2,2-trifluoro-1-[3-(trifluoromethyl)phenyl]ethyl}amino)prop-1-en-1-yl]benzamide]
pest or weed control at 100 g/ha ([2]; Phaedon cochleariae, foliar, application rate 100 g/ha, read-out: efficacy in %): 100%
